Values joined by “and” are separate entries in the source; they are usually repeats but may differ in a detail not shown here. Equal entries are not always repeated. Where two headings read alike, the source gives them in different places.
Columns and labels:
[1] = from literature, cited from earlier work
[2] = from literature, cited from earlier work; remark: listed apart in the source
[3] = in vivo; cited from earlier work
[4] = tested on: DU145 prostate cancer cells; assay: Cell viability analysis (CCK8) in DU145 cells; assay type: cell-based; conditions: 48 hours, physiologically relevant concentrations
Experimental: (§1) DU145 cells were purchased from American Type Culture Collection (ATCC, Manassas, VA, USA). HepG2 cells were kindly gifted by Dr. Zhenghong Lee at Case Western Reserve University (CWRU, Cleveland, OH, USA). All cell lines were cultured in Dulbecco's Modified Eagle's Medium (DMEM, Gibco, Amarillo, TX, USA) supplemented with 1% penicillin-streptomycin (Gibco) and 10% fetal bovine serum (Gibco) and incubated at 37° C. and 5% CO2.
(§2) Cells in culture were trypsonized and counted. In a 96-well plate, cells were seeded at 5,000 cells per well and incubated for 1 day to adhere and proliferate. Cells were then incubated with increasing concentrations of the liver-targeted MBCA for 48 hours. To measure cell viability, a CCK8 assay was performed according to the manufacturer's instructions (Dojindo Molecular Technologies, Inc., Kumamoto, JP). Percent cell viability was calculated as the signal intensity of the treated well divided by the signal intensity of the untreated control wells after accounting for background signal.

[5] = Relaxivity measurements of Mn(EOB-PC2A) in saline containing 4.5% human serum albumin; assay type: physicochemical; conditions: 4.5% human serum albumin in saline, 1.5T, 37° C.
Experimental: (§3) Solutions of Mn(EOB-PC2A) were prepared in DPBS or saline containing 4.5% human serum albumin. The T1 and T2 relaxation times at 1.5T were measured using a Bruker Minispec Relaxometer ([…], 37° C.; Bruker, Billerica, MA, USA). The T1 relaxation times were also measured at 3T using an MRS3000 3T small animal scanner from MR solutions (MR Solutions, Surrey, UK) with a T1 mapping sequence (TR=10 ms, TE=4 ms, T1=50 ms, FOV=40×40 mm, slice thickness=2 mm, number of slices=1, Nav=1, matrix=256×128, flip angle=8°). The r1 and r2 relaxivities were calculated as the slope of the 1/T1 and 1/T2 vs. Mn concentration, respectively.

[6] = tested on: HepG2 hepatoma cells; assay: Cell viability analysis (CCK8) in HepG2 cells; assay type: cell-based; conditions: 48 hours, physiologically relevant concentrations
Experimental: as §1, §2

[7] = Relaxivity measurements of Mn(EOB-PC2A) in DPBS; assay type: physicochemical
Experimental: as §3

[8] = tested on: C57BL6 mice; assay: T1-weighted axial fast spin-echo MRI of the liver; assay type: in vivo; conditions: 0.060 mmol/kg i.v.
Experimental: (§4) All animal and imaging procedures were performed according to an approved Institutional Animal Care and Use Committee protocol. Male C57BL6 mice were purchased from Jackson Labs (Bar Harbor, ME, USA), housed in an animal facility.
(§5) All imaging experiments were performed using the MRS3000 3T small animal scanner. Mice (n=5) were anesthetized with 2% isoflurane, the tail vein was cannulized with a catheter, followed by transferal to the heated mouse bed of the MRI scanner. Mice were monitored with a respiration monitor while in the scanner. Before and at 15 and 30 minutes after administration of 60 μmol/kg Mn(EOB-PC2A), mice were imaged with a T1w axial fast spin-echo sequence with respiratory gating (TR=305 ms, TE=11 ms, FOV=40×40 mm, slice thickness=1 mm, number of slices=15, Nav=4, matrix=256×248) and a 3D FLASH sequence (TR=16 ms, […], T1=1000 ms, FOV=70×35 mm, slice thickness=35 mm, number of slices=1, Nav=3, matrix=256×128, flip angle=25°). Mice underwent an additional T1w axial spin-echo and 3D FLASH acquisitions at 24 hours post-injection.
(§6) MR images were exported in DICOM format, and processed and analyzed using FIJI software (https://imagej.net/software/fiji/). The signal-to-noise ratio [stissue/σnoise] and contrast-to-noise ratio [(stissue−smuscle)/σnoise] were calculated for the relevant tissues of each mouse at every time point. Subtraction images were produced for the 3D FLASH images by first dividing the pixel values of the images of each acquisition by the scaling factor assigned by the MRS software, and then subtracting the corresponding pre-contrast baseline images from the post-contrast images. Maximum intensity projections and 3-dimensional projections were produced for the raw and subtraction 3D FLASH images in FIJI using the “Z-project” function and the “3D-project” function with interpolation, respectively.

[9] = tested on: HepG2 hepatoma cells; assay: Cell uptake analysis (ICP-OES manganese content); assay type: cell-based; conditions: 2 mM, 2 hours
Experimental: Cells were plated in a 6-well plate and incubated for 1 day to adhere and proliferate. Cells were then incubated for 2 hours with 2 mM Mn(EOB-PC2A), after which they were washed three times with DPBS, trypsonized, and pelleted. Cells were resuspended in 250 μL of 75% HNO3 for 48 hours for dissolution, after which 4.75 mL distilled water was added. The samples were centrifuged at 4,000 rpm for 30 minutes to pellet any non-dissolved components and the supernatant was collected. Manganese content in the cell solution was quantified by inductively coupled plasma optical emission spectroscopy (ICP-OES 730, Agilent Technologies, Santa Clara, CA, USA).

[10] = tested on: C57BL6 mice; assay: 3D FLASH whole-body MRI; assay type: in vivo; set-up: key to Delta SNR: change in SNR, where SNR = s_tissue/σ_noise; conditions: for Delta SNR: 0.060 mmol/kg
Experimental: as §4, §5, §6

[11] = blood plasma (human plasma), 1.5 T
[12] = 15 minutes post-injection, relative to pre-contrast baseline
[13] = 30 minutes post-injection, relative to pre-contrast baseline
[14] = 24 hours post-injection, relative to pre-contrast baseline

O=C([O-])CN1CCNCCN(CC(=O)[O-])Cc2cccc(n2)C1.[Mn+2] [Mn-3,9-PC2A]
r1 relaxivity Water/DPBS ([1]; water, 1.41 T): 2.2 mM⁻¹ s⁻¹
r1 relaxivity Plasma/Serum ([2]; Seronorm, 1.41 T): 3.3 mM⁻¹ s⁻¹

mangafodipir
r1 relaxivity Water/DPBS ([1]; 1.5 T): 1.6 mM⁻¹ s⁻¹
r1 relaxivity Plasma/Serum [2, 11]: 3.6 mM⁻¹ s⁻¹

O=C([O-])CN1CCNCc2cccc(n2)CN(CC(=O)[O-])CC1.[Mn+2] [Mn-3,6-PC2A]
r1 relaxivity Water/DPBS ([1]; water, 1.41 T): 2.4 mM⁻¹ s⁻¹
r1 relaxivity Plasma/Serum ([2]; Seronorm, 1.41 T): 3.0 mM⁻¹ s⁻¹

O=C([O-])CN(CCN(CC(=O)[O-])CC(=O)[O-])CCN(CC(=O)[O-])C(COCc1ccccc1)C(=O)[O-].[Gd+3].[H+].[H+] (centres unmarked) [Gadobenate, gadobenate]
r1 relaxivity Water/DPBS ([1]; 1.5 T): 4.0 mM⁻¹ s⁻¹
r1 relaxivity Plasma/Serum [2, 11]: 6.3 mM⁻¹ s⁻¹

CCOc1ccc(C[C@@H](CN(CCN(CC(=O)[O-])CC(=O)[O-])CC(=O)[O-])N(CC(=O)[O-])CC(=O)[O-])cc1.[Gd+3].[H+].[H+] [Gadoxetate, gadoxetate]
time of peak enhancement after administration [3]: around 20 minutes
r1 relaxivity Water/DPBS ([1]; 1.5 T): 4.7 mM⁻¹ s⁻¹
r1 relaxivity Plasma/Serum [2, 11]: 6.9 mM⁻¹ s⁻¹

Mn(EOB-PC2A)
cytotoxicity [4]: no cytotoxicity
r1 relaxivity Plasma/Serum [5]: 5.85 mM⁻¹ s⁻¹ and 5.9 mM⁻¹ s⁻¹
cytotoxicity [6]: no cytotoxicity
r1 relaxivity Water/DPBS ([7]; 1.5T, 37° C.): 2.83 mM⁻¹ s⁻¹ and 2.8 mM⁻¹ s⁻¹
r1 relaxivity ([7]; 3 T): 2.61 mM⁻¹ s⁻¹
normalized CNR of the liver [8, 12]: 3.20
normalized SNR of the liver [8, 12]: 1.41
normalized CNR of the liver [8, 13]: 3.12
normalized SNR of the liver [8, 13]: 1.42
liver CNR [8, 14]: 1.16
liver SNR [8, 14]: 0.86
washout time after injection ([8]; liver MR signal returns to pre-contrast baseline): ≤ 24 h
intracellular concentration of Mn(II) relative to untreated cells [9]: 17 times
Delta SNR ([10]; Bladder, 15 minutes post-injection): 157.07 ± 39.02
Delta SNR ([10]; Bladder, 30 minutes post-injection): 199.96 ± 25.86
Delta SNR ([10]; Bladder, 24 hours post-injection): −2.58 ± 5.42
Delta SNR ([10]; Heart, 15 minutes post-injection): −0.04 ± 5.85
Delta SNR ([10]; Heart, 30 minutes post-injection): −2.28 ± 7.11
Delta SNR ([10]; Heart, 24 hours post-injection): 5.73 ± 16.25
Delta SNR ([10]; Kidney, 15 minutes post-injection): 27.74 ± 7.66
Delta SNR ([10]; Kidney, 30 minutes post-injection): 21.33 ± 8.28
Delta SNR ([10]; Kidney, 24 hours post-injection): 3.87 ± 5.62
Delta SNR ([10]; Liver, 15 minutes post-injection): 51.48 ± 17.20
Delta SNR ([10]; Liver, 30 minutes post-injection): 29.19 ± 14.28
Delta SNR ([10]; Liver, 24 hours post-injection): 1.36 ± 6.44
Delta SNR ([10]; Lung, 15 minutes post-injection): −0.27 ± 0.44
Delta SNR ([10]; Lung, 30 minutes post-injection): −0.41 ± 0.31
Delta SNR ([10]; Lung, 24 hours post-injection): −0.43 ± 0.71
Delta SNR ([10]; Muscle, 15 minutes post-injection): −3.63 ± 3.21
Delta SNR ([10]; Muscle, 30 minutes post-injection): −4.07 ± 5.11
Delta SNR ([10]; Muscle, 24 hours post-injection): −6.62 ± 10.13
biliary elimination ([10]; enhancement in gallbladder, particularly 30 minutes post-injection): eliminated via biliary excretion
renal elimination of unbound agent ([10]; signal enhancement in kidneys and urinary bladder, 15 and 30 minutes post-injection): rapidly excreted via renal filtration

Source: patent publication US20250057990A1, “TISSUE-SPECIFIC MANGANESE BASED MRI CONTRAST AGENTS” (CASE WESTERN RESERVE UNIVERSITY, priority 2021, published 2025)
